In publication PMC9176665, “Legumain/pH dual-responsive lytic peptide–paclitaxel conjugate for synergistic cancer therapy” (Drug Delivery, 2022):
Converted amounts (≈) assume the structure as drawn.

Key:
Assay type in all cases: cell-based
4T1 cells = assay: MTT cytotoxicity assay; conditions: Mus musculus, 72 h, PTX concentration, n = 5
Protocol: (§1) MCF-7 cells, HCT116 cells, and 4T1 cells were seeded in 96-well plates at a density of 3 × 10^3/well. After 12 h, cancer cells were incubated with free PTX and PPP micelles with a PTX concentration from 0.001 µg/mL to 10 µg/mL in 200 µL culture mediums for 72 h. One hundred microliters of culture medium containing 10 µL MTT (5 mg/mL) was added to each well for another 4 h in the dark. The absorbance was measured at 570 nm by a microplate reader (Flexstation 3, Molecular Devices LLC, Sunnyvale, CA). Comparing treated wells with controlled wells, the cell viability was analyzed as mean ± SD (n = 5). In order to confirm the enzyme responsiveness of AAN between the mPEG and PTP-7, MTT assay was used to indirectly observe the cytotoxicity of PTP-7 cleaved by legumain. One microgram of recombinant mouse legumain (Abcam, Cambridge, UK) was activated in a buffer solution (pH 4.5) which contains 50 mM critic acid, 1 mM DTT, and 1 mM EDTA (Zhou et al., [2017]). Then, PP was dissolved in the legumain solution and incubated at 37 °C for 12 h. Next, culture medium containing 0.1–100 µg/mL of free PTP-7 or legumain treated mPEG-PTP-7 was added to cancer cells. After incubation for 24 h, the cell viability was calculated as above.
(§2) The cell lines were purchased from China Center for Type Culture Collection (Wuhan, China). MCF-7 and HCT116 cells were cultivated in DMEM and 1640 with 10% FBS and 1% PS. 4T1 cells were cultivated in 1640 containing 1% glutaMAX^TM-1, 1% MEM NEAA, 1% sodium pyruvate, 10% FBS and 1% PS. All cell lines were incubated in incubator at 37℃ and 5% CO2. All qualified mice were purchased from Hangzhou Medical College and fostered in laboratory animals and all animal experiments followed the ethical requirements set by the ethics committee of Zhejiang University of Technology (20210511034).

HCT116 cells = assay: MTT cytotoxicity assay; conditions: Homo sapiens, HCT-116, 72 h, PTX concentration, n = 5
Protocol: as §1, §2

MCF-7 cells = assay: MTT cytotoxicity assay; conditions: Homo sapiens, MCF7, 72 h, PTX concentration, n = 5
Protocol: as §1, §2

MCF-7 tumor spheroid = assay: Inhibition of tumor spheroid growth; conditions: MCF-7 spheroids, equivalent 0.1 µg/mL PTX, 9th day
Protocol: (§3) MCF-7 cells and HCT116 cells were dispersed in culture medium containing 10% methylcellulose (0.24%, w/v) at a density of around 1 × 10^5 cells/mL. Twenty microliters of the above medium was equably dropped on the lid of a […] cell culture dish and incubated at 37 °C for 24 h. When the tumor spheroids were formed, they were removed to 96-well plates which were pre-coated with agarose. After incubation for 72 h, MCF-7 tumor spheroid was treated with PPP and free PTX at equivalent 0.1 µg/mL PTX and HCT116 tumor spheroid was treated with PPP and free PTX at equivalent 0.05 µg/mL PTX. […] Measured with maximum diameter (dmax) and minimum diameter (dmin), the tumor spheroid volume was calculated by the following equation: V=[…], and the negative control tumor spheroids grew up in culture medium.

HCT116 tumor spheroid = assay: Inhibition of tumor spheroid growth; conditions: equivalent 0.05 µg/mL PTX, 9th day
Protocol: as §3

## CC(=O)O[C@H]1C(=O)[C@@]2(C)[C@H]([C@H](OC(=O)c3ccccc3)[C@]3(O)C[C@H](OC(=O)[C@H](O)[C@@H](NC(=O)c4ccccc4)c4ccccc4)C(C)=C1C3(C)C)[C@]1(OC(C)=O)CO[C@@H]1C[C@@H]2O [PTX, Paclitaxel]
4T1 cells
  IC50: 0.01 mg/L (≈ 0.0117 µM)
HCT116 cells
  IC50: 0.006 mg/L (≈ 0.00703 µM)
MCF-7 cells
  IC50: 0.028 mg/L (≈ 0.0328 µM)
MCF-7 tumor spheroid
  inhibition of spheroids (volume): 47.88%
HCT116 tumor spheroid
  inhibition of spheroids (volume): 20.51%
